Experimental data as given in patent US9346818B2 (priority 2012, dated 2016).
Entries after “also recorded” stand apart in the source; their conditions may differ. Counter-ions that a name gives are not always drawn. Like-named read-outs stand apart in the source and are kept apart here.

Assays:
[1] = target: acetylcholinesterase (Homo sapiens (Human), UniProt P22303); test: biochemical; assay type: biochemical; details: for potency on acetylcholinesterase compared with positive control drug donepezil hydrochloride: in vitro, enzymology level
acetylcholinesterase, sequence (P22303 32-614, species assumed): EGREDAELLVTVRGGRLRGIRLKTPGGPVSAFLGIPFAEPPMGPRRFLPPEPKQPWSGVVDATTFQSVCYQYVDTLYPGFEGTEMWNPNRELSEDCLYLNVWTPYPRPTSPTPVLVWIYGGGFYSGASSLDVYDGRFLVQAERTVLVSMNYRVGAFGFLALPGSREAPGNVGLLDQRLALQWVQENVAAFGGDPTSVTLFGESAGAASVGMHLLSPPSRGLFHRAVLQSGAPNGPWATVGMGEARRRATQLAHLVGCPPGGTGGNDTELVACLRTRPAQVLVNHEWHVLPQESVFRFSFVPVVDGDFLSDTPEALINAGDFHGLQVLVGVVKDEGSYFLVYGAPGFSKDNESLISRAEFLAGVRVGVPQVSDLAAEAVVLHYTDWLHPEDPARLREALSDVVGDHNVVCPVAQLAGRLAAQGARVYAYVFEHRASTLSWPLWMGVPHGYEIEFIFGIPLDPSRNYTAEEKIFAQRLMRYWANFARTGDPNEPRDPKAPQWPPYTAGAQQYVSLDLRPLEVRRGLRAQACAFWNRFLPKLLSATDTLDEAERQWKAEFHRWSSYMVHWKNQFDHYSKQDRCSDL

[2] = test system: learning and memory disorder of mice induced by scopolamine; test: Morris water maze test, senile dementia mice model induced by scopolamine; assay type: in vivo; details: for effect on learning and memory disorder of mice induced by scopolamine: Morris water maze, in comparison with model group / donepezil hydrochloride group; for latent period day 1 / latent period day 2 / latent period day 3 / latent period day 4 / latent period day 5 / times of crossing platform: scopolamine 1 mg/kg
[3] = test system: malonaldehyde (MDA); test: Biochemical indicators of brain tissues (MDA assay) in scopolamine mice; assay type: in vivo; details: brain tissue homogenate, 5 mg/kg
Protocol: After the behavior test was complete, the mice were sacrificed, brain tissues were collected (operated on an ice plate) and prepared into 10% of tissue homogenate with pre-cooled physiological saline, centrifuged (3000 rpm, 10 min), and the supernatant was subjected to malonaldehyde (MDA) assay following the kits.

[4] = test system: learning and memory disorder induced by intracerebroventricular injection of Aβ1-42; test: Morris water maze test, rats with intracerebroventricular injection of Aβ1-42; assay type: in vivo; details: Aβ1-42 rats
Protocol: The model of learning and memory disorder induced after intracerebroventricular injection of Aβ1-42 is the most common animal model for evaluating whether a compound has the effect of improving the learning and memory. […] Morris water maze test and the model of learning and memory disorder induced by intracerebroventricular injection of Aβ1-42 were employed in the present research, and the improvement effects of I-33 on learning and memory of rats at various concentration (0.7 mg/Kg, 3.5 mg/Kg, and 7 mg/Kg) were evaluated.
SD, male (220±20 g), the animals were fed in light: dark cycle (12 h/12 h) in a cleaning level of animal room, ad lib. The tests were performed after 3 days acclimation in the animal room. Aβ1-42 was formulated to 2 μg/μl according to the instruction of specification.
(1) Normal group: intracerebroventricular injection of physiological saline
(2) Model group with intracerebroventricular injection of Aβ1-42: intracerebroventricular injection of Aβ1-42
(4) I-33 (low concentration group): I-33 (0.7 mg/Kg)+intracerebroventricular injection of Aβ1-42
(5) I-33 (medium concentration group): I-33 (3.5 mg/Kg)+intracerebroventricular injection of Aβ1-42
(6) I-33 (high concentration group): I-33 (7 mg/Kg)+intracerebroventricular injection of Aβ1-42
Each rat in normal control group received intracerebroventricular injection of 5 μl of physiological saline, each rat in the other groups received intracerebroventricular injection of 5 μl of Aβ1-42. After the operation, the rats received the following tests after 1 week recovery period. […] The drugs were administered for 8 days, the training for water maze test was started on the 5th day, and the water maze test was formally started on the 9th day.

[5] = modified Ellman method, read-out: IC50 (nM), inhibition activity on acetylcholinesterase
[6] = read-out: IC50 (nM), inhibition activity on acetylcholinesterase
[7] = DPH 3 mg/Kg, I-33 all dosages tested

## O=C1c2cc3c(cc2C(=O)N1CCC1CCN(Cc2cccc(F)c2)CC1)OCO3 [Compound I-3, 6-[2-[1-[(3-fluorophenyl)methyl]-4-piperidyl]ethyl]-[1,3]dioxolo[4,5-f]isoindole-5,7-dione]
[1]
  potency on acetylcholinesterase compared with positive control drug donepezil hydrochloride: slightly lower potency than the positive control drug
[1]; [5]
  IC50: 269 nM
[2]
  effect on learning and memory disorder of mice induced by scopolamine: decreases significantly
[2]; Table 3, 5 mg/kg intragastric
  latent period day 1: 56.5 ± 8.5 s
  latent period day 2: 56.5 ± 8.6 s
  latent period day 3: 60 ± 0 s
  latent period day 4: 43.9 ± 15.4 s
  latent period day 5: 34.0 ± 19.5 s
  times of crossing platform: 1.9 ± 1.5
[2]; Table 3, 10 mg/kg intragastric
  latent period day 1: 59.3 ± 2.6 s
  latent period day 2: 56.3 ± 9.7 s
  latent period day 3: 55.5 ± 9.5 s
  latent period day 4: 49.4 ± 15.7 s
  latent period day 5: 45.0 ± 15.0 s
  times of crossing platform: 1.1 ± 1.1

## CC1(C)c2cc3c(cc2C(=O)N1CCC1CCN(Cc2ccccc2F)CC1)OCO3 [Compound I-14, 6-[2-[1-[(2-fluorophenyl)methyl]-4-piperidyl]ethyl]-7,7-dimethyl-[1,3]dioxolo[4,5-f]isoindol-5-one]
[1]
  potency on acetylcholinesterase compared with positive control drug donepezil hydrochloride: relative low activity
[1]; [6]
  IC50: > 2000 nM
[2]; Table 4, 5 mg/kg intragastric
  latent period day 1: 57.1 ± 7.6 s
  latent period day 2: 60 ± 0 s
  latent period day 3: 60 ± 0 s
  latent period day 4: 54.2 ± 8.9 s
  latent period day 5: 49.9 ± 14.7 s
  times of crossing platform: 1.3 ± 1.8
[3]
  MDA(nmol/mgprot): 7.36 ± 1.3 nmol/mgprot

## CC1(C)c2cc3c(cc2C(=O)N1CCC1CCN(Cc2cccc(F)c2)CC1)OCO3 [Compound I-15, 6-[2-[1-[(3-fluorophenyl)methyl]-4-piperidyl]ethyl]-7,7-dimethyl-[1,3]dioxolo[4,5-f]isoindol-5-one]
[1]
  potency on acetylcholinesterase compared with positive control drug donepezil hydrochloride: relative low activity
[1]; [5]
  IC50: > 2000 nM
[2]; Table 4, 5 mg/kg intragastric
  latent period day 1: 60 ± 0 s
  latent period day 2: 58.9 ± 4.4 s
  latent period day 3: 56.5 ± 8.3 s
  latent period day 4: 57.8 ± 5.3 s
  latent period day 5: 51.1 ± 10.9 s
  times of crossing platform: 1.9 ± 1.5
[3]
  MDA(nmol/mgprot): 7.41 ± 2.1 nmol/mgprot

## O=C1c2cc3c(cc2C2(CC2)N1CCC1CCN(Cc2ccccc2)CC1)OCO3 [Compound I-17, 6-[2-(1-benzyl-4-piperidyl)ethyl]spiro[[1,3]dioxolo[4,5-f]isoindole-7,1′-cyclopropane]-5-one]
[1]; IC50 (nM), inhibition activity on acetylcholinesterase, modified Ellman method
  IC50: 202 nM
[1]
  potency on acetylcholinesterase compared with positive control drug donepezil hydrochloride: slightly lower potency than the positive control drug; also recorded: comparable inhibition activity on acetylcholinesterase with donepezil hydrochloride
[2]
  effect on learning and memory disorder of mice induced by scopolamine: superior to the donepezil hydrochloride group; also recorded: had the effect of improving the learning and memory disorder of mice induced by scopolamine; also recorded: stronger effects of improving learning and memory
[2]; Table 2, 5 mg/kg intragastric
  latent period day 1: 56.8 ± 8.6 s
  latent period day 2: 60 ± 0 s
  latent period day 3: 48.7 ± 15.7 s
  latent period day 4: 56.7 ± 8.1 s
  latent period day 5: 47.2 ± 13.4 s
  times of crossing platform: 1.8 ± 2.5
[2]; Table 6, 5 mg/kg intragastric
  latent period day 1: 57.3 ± 6.7 s
  latent period day 2: 56.3 ± 9.1 s
  latent period day 3: 52.5 ± 10.4 s
  latent period day 4: 46.4 ± 16.6 s
  latent period day 5: 43.7 ± 11.8 s
  times of crossing platform: 2.00 ± 1.41
[2]; Table 6, 10 mg/kg intragastric
  latent period day 1: 59.9 ± 0.3 s
  latent period day 2: 58.1 ± 6.2 s
  latent period day 3: 51.1 ± 12.0 s
  latent period day 4: 42.1 ± 15.5 s
  latent period day 5: 39.3 ± 16.7 s
  times of crossing platform: 2.60 ± 1.96

## O=C1c2cc3c(cc2C2(CC2)N1CCC1CCN(Cc2ccccc2F)CC1)OCO3 [Compound I-18, 6-[2-[1-[(2-fluorophenyl)methyl]-4-piperidyl]ethyl]spiro[[1,3]dioxolo[4,5-f]isoindole-7,1′-cyclopropane]-5-one]
[1]
  potency on acetylcholinesterase compared with positive control drug donepezil hydrochloride: slightly lower potency than the positive control drug
[1]; [5]
  IC50: 154 nM
[2]
  effect on learning and memory disorder of mice induced by scopolamine: can improve the learning and memory disorder of the animals induced by scopolamine
[2]; Table 2, 5 mg/kg intragastric
  latent period day 1: 60 ± 0 s
  latent period day 2: 60 ± 0 s
  latent period day 3: 53.1 ± 10.4 s
  latent period day 4: 56.9 ± 8.2 s
  latent period day 5: 56.8 ± 8.6 s
  times of crossing platform: 0.5 ± 0.6
[2]; Table 3, 5 mg/kg intragastric
  latent period day 1: 55.0 ± 10.3 s
  latent period day 2: 55.9 ± 9.0 s
  latent period day 3: 60 ± 0 s
  latent period day 4: 51.8 ± 15.6 s
  latent period day 5: 35.6 ± 15.4 s
  times of crossing platform: 1.5 ± 1.7
[2]; Table 3, 10 mg/kg intragastric
  latent period day 1: 56.0 ± 9.9 s
  latent period day 2: 52.4 ± 12.4 s
  latent period day 3: 60 ± 0 s
  latent period day 4: 48.8 ± 15.4 s
  latent period day 5: 49.2 ± 15.9 s
  times of crossing platform: 1.5 ± 1.2

## O=C1c2cc3c(cc2C2(CC2)N1CCC1CCN(Cc2cccc(F)c2)CC1)OCO3 [Compound I-19, 6-[2-[1-[(3-fluorophenyl)methyl]-4-piperidyl]ethyl]spiro[[1,3]dioxolo[4,5-f]isoindole-7,1′-cyclopropane]-5-one]
[1]
  potency on acetylcholinesterase compared with positive control drug donepezil hydrochloride: even lower
[1]; [5]
  IC50: 376 nM
[2]
  effect on learning and memory disorder of mice induced by scopolamine: can improve the learning and memory disorder of the animals induced by scopolamine
[2]; Table 2, 5 mg/kg intragastric
  latent period day 1: 60 ± 0 s
  latent period day 2: 60 ± 0 s
  latent period day 3: 55.2 ± 11.8 s
  latent period day 4: 57.3 ± 10.4 s
  latent period day 5: 53.9 ± 12.4 s
  times of crossing platform: 0.8 ± 1.4

## Cc1ccccc1CN1CCC(CCN2C(=O)c3cc4c(cc3C23CC3)OCO4)CC1 [Compound I-23, 6-[2-[1-(o-tolylmethyl)-4-piperidyl]ethyl]spiro[[1,3]dioxolo[4,5-f]isoindole-7,1′-cyclopropane]-5-one]
[1]
  potency on acetylcholinesterase compared with positive control drug donepezil hydrochloride: even lower
[1]; [5]
  IC50: 959 nM
[2]; Table 4, 5 mg/kg intragastric
  latent period day 1: 57.8 ± 5.4 s
  latent period day 2: 57.7 ± 7.1 s
  latent period day 3: 55.5 ± 8.8 s
  latent period day 4: 43.9 ± 14.1 s
  latent period day 5: 51.8 ± 10.9 s
  times of crossing platform: 1.5 ± 1.5
[3]
  MDA(nmol/mgprot): 6.53 ± 2.3 nmol/mgprot

## O=C1c2cc3c(cc2C2(CC2)N1CCC1CCN(Cc2ccc[nH]2)CC1)OCO3 [Compound I-39, 6-[2-[1-(1H-pyrrol-2-ylmethyl)-4-piperidyl]ethyl]spiro[[1,3]dioxolo[4,5-f]isoindole-7,1′-cyclopropane]-5-one]
[1]
  potency on acetylcholinesterase compared with positive control drug donepezil hydrochloride: relative low activity
[1]; [6]
  IC50: > 2000 nM

## Cc1ccc(CN2CCC(CCN3C(=O)c4cc5c(cc4C34CC4)OCO5)CC2)[nH]1 [Compound I-40, 6-[2-[1-[(5-methyl-1H-pyrrol-2-yl)methyl]-4-piperidyl]ethyl]spiro[[1,3]dioxolo[4,5-f]isoindole-7,1′-cyclopropane]-5-one]
[1]
  potency on acetylcholinesterase compared with positive control drug donepezil hydrochloride: relative low activity
[1]; [6]
  IC50: > 2000 nM

## O=C1c2cc3c(cc2C2(CC2)N1CCC1CCN(Cc2ccn[nH]2)CC1)OCO3 [Compound I-41, 6-[2-[1-(1H-pyrazol-5-ylmethyl)-4-piperidyl]ethyl]spiro[[1,3]dioxolo[4,5-f]isoindole-7,1′-cyclopropane]-5-one]
[1]
  potency on acetylcholinesterase compared with positive control drug donepezil hydrochloride: even lower
[1]; [6]
  IC50: 990 nM

## COc1cc2c(cc1OC)C(=O)C(CC1CCN(Cc3ccccc3)CC1)C2 (stereo not shown) [DPH, donepezil hydrochloride, reference compound]
[4]; 3 mg/Kg intragastric, 8 days
  The period of reaching the platform for the first time (latent period): 23.94 ± 4.84
  times of crossing platform: 3.22 ± 0.55
[4]; [7]
  effect on period required for reaching the platform for the first time (latent period): significantly shorten the period required for reaching the platform for the first time
  effect on times of crossing the platform: significantly increases the times of crossing the platform
